Experimental data taken from patent US6965021B2, “Feedback-resistant pyruvate carboxylase gene from corynebacterium” (Archer-Daniels-Midland Company, priority 2000, dated 2005).

Key:
[1] = test system: pyruvate carboxylase from ATCC 21253; assay: Effect of aspartate, ATP and acetyl-CoA on pyruvate carboxylase activity, strain ATCC 21253; type: biochemical, Corynebacterium glutamicum
Description: (§1) Pyruvate carboxylate and phosphoenol pyruvate carboxylate assays were performed with permeabilized cells prepared by the following method. Log phase cells were harvested by centrifugation for 10 min at 5000×g at 4° C. and washed with 20 ml of the ice-cold washing buffer (50 mM Tris/HCl [pH 6.3] containing 50 mM NaCl). The cell pellet was resuspended in an ice-cold Hepes buffer (100 mM Hepes [pH 7.5] containing 20% Glycerol) to reach a final concentration of 25 g dry cell weight/liter. Resuspended cells were permeabilized by adding 30 μl of a 10% Hexadecyltrimethyl-ammonium bromide (CTAB) (w/v) solution to 1 ml of cells to give a final concentration of 0.3% (CTAB)(v/v). […]
(§2) Pyruvate carboxylase activity was determined as a function of various concentrations of its substrates: pyruvate, bicarbonate and ATP (FIG. 3). Based on the data generated, the affinity constants of pyruvate carboxylase for its substrates were determined (Table 2). […]
(§3) Aspartate inhibits phosphoenol pyruvate carboxylase (PEPC) activity. To determine the effect of aspartate on the activity of pyruvate carboxylase, aspartate was added at different concentrations in the spectrophotometer cuvette and enzyme activities were measured. […]
(§4) Pyruvate carboxylase activity was measured in the presence of different concentrations of acetyl-CoA (FIG. 6). […]

citrate synthase = assay: Effect of acetyl-CoA on citrate synthase; type: biochemical; details: acetyl-CoA on citrate synthase itself
Description: Pyruvate carboxylase activity was measured in the presence of different concentrations of acetyl-CoA (FIG. 6). Pyruvate carboxylase activity in both strains increased with increasing acetyl-CoA concentrations. The effect of acetyl-CoA on citrate synthase itself was studied also. […] Therefore, the increasing activity of pyruvate carboxylase with increasing acetyl-CoA concentration is the result of acetyl-CoA activating pyruvate carboxylase.

[2] = test system: pyruvate carboxylase from NRRL B-11474; assay: Effect of aspartate, ATP and acetyl-CoA on pyruvate carboxylase activity, strain NRRL B-11474; type: biochemical, Corynebacterium glutamicum
Description: as §1, §2, §3, §4

[3] = biological target: T1, Corynebacterium glutamicum ATCC 21253 pyruvate carboxylase, wild type, SEQ ID NO:19 (Corynebacterium glutamicum, UniProt H7C7K2); assay: Continuous pyruvate carboxylase assay (permeabilized cells), ATCC 21253; type: biochemical
T1 construct: coupled citrate synthase/DTNB assay
T1 sequence (H7C7K2 1-1140): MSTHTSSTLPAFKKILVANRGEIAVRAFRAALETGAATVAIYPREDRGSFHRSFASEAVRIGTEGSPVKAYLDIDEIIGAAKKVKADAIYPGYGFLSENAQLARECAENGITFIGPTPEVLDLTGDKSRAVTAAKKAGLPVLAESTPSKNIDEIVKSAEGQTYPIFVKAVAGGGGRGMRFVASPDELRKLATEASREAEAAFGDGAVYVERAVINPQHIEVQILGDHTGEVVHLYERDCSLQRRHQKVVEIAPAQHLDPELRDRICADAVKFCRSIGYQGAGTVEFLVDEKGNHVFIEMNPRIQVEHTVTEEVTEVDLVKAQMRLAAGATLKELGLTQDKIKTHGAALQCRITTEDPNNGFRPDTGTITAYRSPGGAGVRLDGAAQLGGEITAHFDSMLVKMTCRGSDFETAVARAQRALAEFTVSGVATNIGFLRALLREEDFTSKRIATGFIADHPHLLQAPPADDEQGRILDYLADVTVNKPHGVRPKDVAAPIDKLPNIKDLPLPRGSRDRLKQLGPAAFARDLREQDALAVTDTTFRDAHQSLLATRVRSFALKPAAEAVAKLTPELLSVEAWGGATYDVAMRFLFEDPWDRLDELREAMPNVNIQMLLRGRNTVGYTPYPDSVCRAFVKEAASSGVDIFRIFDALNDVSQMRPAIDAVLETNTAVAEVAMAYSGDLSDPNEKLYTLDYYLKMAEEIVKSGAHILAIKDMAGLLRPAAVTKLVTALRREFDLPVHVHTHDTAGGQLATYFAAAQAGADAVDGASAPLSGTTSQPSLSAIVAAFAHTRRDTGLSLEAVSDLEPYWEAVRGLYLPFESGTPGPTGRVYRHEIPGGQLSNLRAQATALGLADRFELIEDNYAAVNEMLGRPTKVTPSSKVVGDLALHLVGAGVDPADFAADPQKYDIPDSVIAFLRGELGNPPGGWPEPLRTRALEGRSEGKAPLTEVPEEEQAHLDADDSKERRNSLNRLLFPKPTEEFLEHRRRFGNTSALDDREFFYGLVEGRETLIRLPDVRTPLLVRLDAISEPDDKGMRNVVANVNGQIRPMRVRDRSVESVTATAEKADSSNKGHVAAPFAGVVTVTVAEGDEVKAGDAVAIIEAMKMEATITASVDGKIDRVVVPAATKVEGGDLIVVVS
Description: as §1
(§5) Pyruvate carboxylase activity was determined as a function of various concentrations of its substrates: pyruvate, bicarbonate and ATP (FIG. 3). Based on the data generated, the affinity constants of pyruvate carboxylase for its substrates were determined (Table 2).
To determine the effect of aspartate on the activity of pyruvate carboxylase, aspartate was added at different concentrations in the spectrophotometer cuvette and enzyme activities were measured. […]
as §4

[4] = biological target: Corynebacterium glutamicum NRRL B-11474 (BF100) pyruvate carboxylase, feedback-resistant variant (M1V, E153D, A182S, A206S, H227R, A455G, D1120E), SEQ ID NO:2 (Corynebacterium glutamicum, UniProt H7C7K2, A182S/A206S/A455G/D1120E/E153D/H227R/M1V)
Description: Pyruvate carboxylate and phosphoenol pyruvate carboxylate assays were performed with permeabilized cells prepared by the following method. Log phase cells were harvested by centrifugation for 10 min at 5000×g at 4° C. and washed with 20 ml of the ice-cold washing buffer (50 mM Tris/HCl [pH 6.3] containing 50 mM NaCl). The cell pellet was resuspended in an ice-cold Hepes buffer (100 mM Hepes [pH 7.5] containing 20% Glycerol) to reach a final concentration of 25 g dry cell weight/liter. Resuspended cells were permeabilized by adding 30 μl of a 10% Hexadecyltrimethyl-ammonium bromide (CTAB) (w/v) solution to 1 ml of cells to give a final concentration of 0.3% (CTAB)(v/v).
The reaction was started at 30° C. with the addition of 10 μl of the permeabilized cell suspension, and the formation of DTNB-thiophenolate was followed over time at 412 nm. Relevant standards and controls were carried out in the same manner.
(§6) To account for the intrinsic loss of OAA during the experiment, a continuous assay was carried out by coupling the two-reaction assay to a one-reaction assay in presence of an excess of citrate synthase. The amount of permeabilized cells added in the assay was optimized to obtain a detectable activity, with the lowest possible background absorbency due to the presence of cells.
as §5
To determine the effect of aspartate on the activity of pyruvate carboxylase, aspartate was added at different concentrations in the spectrophotometer cuvette and enzyme activities were measured. As a comparison, the same experiment was carried out with PEPC in ATCC 21253 (FIG. 5).
Pyruvate carboxylase activity was measured in the presence of different concentrations of acetyl-CoA (FIG. 6). […] The effect of acetyl-CoA on citrate synthase itself was studied also.

pyruvate carboxylase [5] = assay: Controls for the continuous pyruvate carboxylate assay; type: biochemical, Corynebacterium glutamicum; details: complete mixture + biotin (complete mixture alone 0.30)
Description: For determination of pyruvate carboxylate activity, the assay mixture contained 10 mM pyruvic acid, 14 mM KHCO3, 4 mM MgCl2, 1.75 mM ATP, 50 μmole acetyl-CoA, 0.3 mg bovine serum albumin, 0.055 U citrate synthase and 50 mM sodium phosphate buffer ([pH 7.5] containing 0.1 mg 5,5′-Dithio-bis(2-nitrobenzoic acid) (DTNB)) in a final volume of 1 ml. The reaction was started at 30° C. with the addition of 10 μl of the permeabilized cell suspension, and the formation of DTNB-thiophenolate was followed over time at 412 nm. Relevant standards and controls were carried out in the same manner.
as §6
To confirm that the continuous assay specifically detected pyruvate carboxylase activity, controls were carried out by assaying for activity in absence of each reaction component (Table 1). Using these controls, the detected activity was determined to be a carboxylation reaction requiring pyruvate, Mg and ATP.

CC(=O)C(=O)O = assay: purified protein, by the assay type; details: other: permeabilized cells, pH 7.5, 30° C.
Description: (§7) To account for the intrinsic loss of OAA during the experiment, a continuous assay was carried out by coupling the two-reaction assay to a one-reaction assay in presence of an excess of citrate synthase. […]

[6] = test system: Nc1ncnc2c1ncn2[C@@H]1O[C@H](COP(=O)(O)OP(=O)(O)OP(=O)(O)O)[C@@H](O)[C@H]1O; assay: purified protein, by the assay type; details: other: permeabilized cells, pH 7.5, 30° C.
Description: as §7

pyruvate carboxylase [7] = assay: Continuous pyruvate carboxylase assay with permeabilized cells: affinity constants for substrates and basal activity; type: biochemical, Corynebacterium glutamicum; details: NRRL B-11474 versus ATCC 21253
[8] = different concentrations of acetyl-CoA
[9] = ATP above a concentration of 2 mM

CC(=O)SCCNC(=O)CCNC(=O)[C@H](O)C(C)(C)COP(=O)(O)OP(=O)(O)OC[C@H]1O[C@@H](n2cnc3c(N)ncnc32)[C@H](O)[C@@H]1OP(=O)(O)O [acetyl-CoA]
pyruvate carboxylase activity with increasing acetyl-CoA concentrations [1, 8]: increased
Km (citrate synthase): 10 µM
pyruvate carboxylase activity with increasing acetyl-CoA concentrations [2, 8]: increased

O=C(O)O [HCO3−, bicarbonate]
Km ([3]; permeabilized cells, pH 7.5, 30° C., read-out: KM(HCO3−)): 2900 ± 800 µM
Km ([4]; read-out: KM(HCO3−), permeabilized cells, pH 7.5, 30° C.): 14400 ± 4000 µM

O=C(O)CCCC[C@@H]1SC[C@@H]2NC(=O)N[C@@H]21 [biotin]
Detected Activity (pyruvate carboxylase [5]): 0.35 Abs/min.mg DCW

Nc1ncnc2c1ncn2[C@@H]1O[C@H](COP(=O)(O)OP(=O)(O)OP(=O)(O)O)[C@@H](O)[C@H]1O [ATP, adenosine triphosphate]
ATP concentration above which activity is inhibited [1]: > 2 mM
inhibition of pyruvate carboxylase activity by ATP [3, 9]: inhibited
ATP concentration above which activity is inhibited [2]: > 2 mM
inhibition of pyruvate carboxylase activity by ATP [4, 9]: inhibited

Corynebacterium glutamicum NRRL B-11474 (BF100) pyruvate carboxylase, feedback-resistant variant (M1V, E153D, A182S, A206S, H227R, A455G, D1120E), SEQ ID NO:2 (Corynebacterium glutamicum ATCC 13032; A182S/A206S/A455G/D1120E/E153D/H227R/M1V)
Km (CC(=O)C(=O)O): 1300 ± 300 µM
Km [6]: 400 ± 100 µM

B1: Pyc: feedback-resistant pyruvate carboxylase (SEQ ID NO:2) from Corynebacterium glutamicum NRRL B-11474, also known as BF100 (protein)
chain: MTAITLGGLLLKGIITLVSTHTSSTLPAFKKILVANRGEIAVRAFRAALETGAATVAIYPREDRGSFHRSFASEAVRIGTEGSPVKAYLDIDEIIGAAKKVKADAIYPGYGFLSENAQLARECAENGITFIGPTPEVLDLTGDKSRAVTAAKKAGLPVLAESTPSKNIDDIVKSAEGQTYPIFVKAVAGGGGRGMRFVSSPDELRKLATEASREAEAAFGDGSVYVERAVINPQHIEVQILGDRTGEVVHLYERDCSLQRRHQKVVEIAPAQHLDPELRDRICADAVKFCRSIGYQGAGTVEFLVDEKGNHVFIEMNPRIQVEHTVTEEVTEVDLVKAQMRLAAGATLKELGLTQDKIKTHGAALQCRITTEDPNNGFRPDTGTITAYRSPGGAGVRLDGAAQLGGEITAHFDSMLVKMTCRGSDFETAVARAQRALAEFTVSGVATNIGFLRALLREEDFTSKRIATGFIGDHPHLLQAPPADDEQGRILDYLADVTVNKPHGVRPKDVAAPIDKLPNIKDLPLPRGSRDRLKQLGPAAFARDLREQDALAVTDTTFRDAHQSLLATRVRSFALKPAAEAVAKLTPELLSVEAWGGATYDVAMRFLFEDPWDRLDELREAMPNVNIQMLLRGRNTVGYTPYPDSVCRAFVKEAASSGVDIFRIFDALNDVSQMRPAIDAVLETNTAVAEVAMAYSGDLSDPNEKLYTLDYYLKMAEEIVKSGAHILAIKDMAGLLRPAAVTKLVTALRREFDLPVHVHTHDTAGGQLATYFAAAQAGADAVDGASAPLSGTTSQPSLSAIVAAFAHTRRDTGLSLEAVSDLEPYWEAVRGLYLPFESGTPGPTGRVYRHEIPGGQLSNLRAQATALGLADRFELIEDNYAAVNEMLGRPTKVTPSSKVVGDLALHLVGAGVDPADFAADPQKYDIPDSVIAFLRGELGNPPGGWPEPLRTRALEGRSEGKAPLTEVPEEEQAHLDADDSKERRNSLNRLLFPKPTEEFLEHRRRFGNTSALDDREFFYGLVEGRETLIRLPDVRTPLLVRLDAISEPDDKGMRNVVANVNGQIRPMRVRDRSVESVTATAEKADSSNKGHVAAPFAGVVTVTVAEGDEVKAGDAVAIIEAMKMEATITASVDGKIERVVVPAATKVEGGDLIVVVS
basal pyruvate carboxylase activity relative to ATCC 21253 (pyruvate carboxylase [7]): about 5 times
